According to patent publication US10603701B2, “Bioremediation of 1,4-dioxane and chlorinated aliphatic hydrocarbons by propanotrophic bacteria” (New Jersey Institute of Technology, priority 2018, dated 2020):

Columns and labels:
Azoarcus sp. DD4 [1] = experiment: Biodegradation of concurrent dioxane and 1,1-DCE by DD4 in microcosms; format: cell-based; conditions: for effect of presence on utilization of 1-propanol and proliferation of DD4: 1-propanol as primary substrate
Description: Biodegradation of concurrent dioxane and 1,1-DCE by Azoarcus sp. DD4. To evaluate the performance of DD4 in removing dioxane and 1,1-DCE when both compounds are concurrently present, microcosms were prepared with DD4 inoculum in NMS medium and dosed with dioxane and 1,1-DCE. Two primary substrates were used, including propane and 1-propanol.

[2] = system: Psuedonocardia dioxanivorans CB1190; conditions: previous studies; cited from earlier work
Azoarcus sp. DD4 [3] = experiment: Inhibition of 1,1-DCE on dioxane degradation by DD4 resting cells; format: cell-based; conditions: dioxane 20.9±0.3 mg/L and 1,1-DCE 5.0±0.4 mg/L, 24 hr
Description: Inhibition of 1,1-DCE on dioxane degradation by Azoarcus sp. DD4. Though DD4 can degrade both dioxane and 1,1-DCE, the effect(s) of 1,1-DCE on dioxane biodegradation was investigated. DD4 cells were harvested at the exponential growth phase and washed by NMS medium three times. Three treatments were prepared with the resting cells by the exposure of dioxane (19.7±1.2 mg/L), 1,1-DCE (5.5±0.1 mg/L), and both dioxane (20.9±0.3 mg/L) and 1,1-DCE (5.0±0.4 mg/L). Concentrations of 1,1-DCE and dioxane were monitored using GC at selected time intervals over 24 hr. Abiotic controls were treated identically. All experiments were performed in duplicate vials. […] Thus, it is very plausible that DD4 can resume its capability of degrading dioxane once 1,1-DCE is depleted by DD4.

Azoarcus sp. DD4 [4] = experiment: Inhibition of dioxane, 1,1-DCE and propane degradation by acetylene (DD4 resting cells); format: cell-based; conditions: resting cells pre-incubated with acetylene 10% headspace volume, 20 minutes
Description: Inhibition of dioxane, 1,1-DCE, and propane degradation by acetylene. Acetylene is an irreversible suicide substrate that inactivates bacterial monooxygenases (MOs). Prior S. and Dalton H, 1985. Acetylene as a suicide substrate and active site probe for methane monooxygenase from Methylococcus capsulatus (Bath). FEMS Microbiology Letters. 29, 105-109. […] After being washed with NMS three times, resting cells were pre-incubated with acetylene (10% headspace volume) for 20 minutes prior to the amendment of dioxane, 1,1-DCE, or propane. The effect of the inhibitor acetylene was studied by monitoring the depletion of dioxane, 1,1-DCE, and propane over time in the presence or absence of acetylene. Duplicate abiotic controls were prepared in parallel. The propane and dioxane depletion were monitored over time by GC analysis.

Azoarcus sp. DD4 [5] = experiment: Propane and dioxane degradation by DD4 with or without ATU; format: cell-based; conditions: propane as primary substrate; dioxane degradation thus prolonged
Description: Allylthiourea (ATU) was reported to inhibit the particulate MOs involved in nitrification and alkane degradation in various bacteria. To exploit the effects ofprm-deletion on the propane and dioxane degradation and further to distinguish the soluble versus particulate MO category the DD4 dioxane degrader belongs to, the wild-type and prm-deleted DD4 strains were cultured with and without the presence of ATU using propane as a primary substrate to cometabolize dioxane. Duplicate abiotic controls were prepared in parallel. The propane and dioxane depletion were monitored over time by GC analysis. Now referring to FIGS. 11a and 11b, prmADBC is only partially correlated with the propane degradation but not associated with the dioxane cometabolism.

Mycobacterium sp. DT1 = experiment: Concurrent biodegradation of dioxane and TCE by DT1 in simulated microcosms; format: cell-based
Description: Concurrent biodegradation of dioxane and TCE by Mycobacterium sp. DT1. To evaluate the performance of DT1 in the removal of dioxane and TCE when both compounds are concurrently present, simulated microcosms were prepared with DT1 inoculum in BSM medium and dosed with dioxane and TCE. Propane was used as the primary substrate. […] After a short lag time (1 d), all the substrates, i.e. propane, dioxane, and TCE, were degraded synchronically. At the end of day 2, the initial 71.1, 20.2, and 2.15 mg/L of propane, dioxane, and TCE were degraded to 25.8, 11.3, and 1.59 mg/L, respectively. TCE was degraded to below the MDL of the GC-FID methods employed (i.e., 0.01 mg/L), and 85% of dioxane was removed from the simulated microcosm after 4 days incubation.

Azoarcus sp. DD4 [6] = conditions: propane as substrate
Description: DD4's adaptability to pH, salinity and temperature. To identify its optimum growth conditions, DD4 was cultured with propane as the substrate under different pHs, temperatures, and salinities. The pHs of NMS medium were adjusted to 4.0, 5.0, 6.0, 7.0, 8.0, 9.0 and 10.0 with appropriate amount of 1 M HCl or 1 M NaOH. The NMS mediums were cultured under 10° C., 15° C., 20° C., 25° C., 30° C., 35° C., and 40° C. The salinities of NMS medium were adjusted to 0%, 0.5%, 1.0%, 1.5%, 2.0%, 2.5%, 3.0%, and 3.5% (w/v) with NaCl. 6 mL of propane (equivalent to 6% of the head space volume) was injected into the sealed bottles in all these assays. DD4 was inoculated at the initial concentration of 0.05 measured as OD600 and cultured under 30° C., 150 rpm for 72 h while shaking. The optical density (OD) values of bacterial suspensions were determined with spectrophotometer under 600 nm.

Question: Which “effect of presence on utilization of 1-propanol and proliferation of DD4” value (Azoarcus sp. DD4 [1]) does the source give for C=C(Cl)Cl [1,1-DCE, 1,1-dichloroethylene] here?
Answer: did not inhibit

Question: And the “effect of presence on degradation of dioxane and consumption of propane for growth” value (Azoarcus sp. DD4 [1]; propane as primary substrate, NMS microcosm)?
Answer: significantly inhibited

Question: What about the “effect of exposure on dioxane degradation by CB1190” value [2] of the same compound?
Answer: significantly prohibit

Question: What about the “effect of presence on dioxane degradation by DD4 resting cells” value (Azoarcus sp. DD4 [3]) of the same compound?
Answer: greatly inhibited

Question: With C#C [acetylene] as the compound, how does the “effect of exposure on degradation of propane, 1,1-DCE and dioxane” value (Azoarcus sp. DD4 [4]) read?
Answer: completely prohibited

Question: With C=CCNC(N)=S [ATU, Allylthiourea] as the compound, how does the “effect on propane consumption” value (Azoarcus sp. DD4 [5]) read?
Answer: partially inhibit

Question: With C1COCCO1 [dioxane, 1,4-dioxane] as the compound, how does the “effect of presence on utilization of 1-propanol and proliferation of DD4” value (Azoarcus sp. DD4 [1]) read?
Answer: did not inhibit

Question: And the “dioxane removed after 4 days incubation” value (Mycobacterium sp. DT1; initial 20.2 mg/L)?
Answer: 85%

Question: What about the “effect on 1,1-DCE degradation by DD4 resting cells” value (Azoarcus sp. DD4 [3]) of the same compound?
Answer: no inhibitory effects

Question: Which results are given for [Cl-].[Na+] [NaCl]?
Answer: optimal growth parameter, NaCl (Azoarcus sp. DD4 [6]; 72 h, OD600, w/v): 0-1%; NaCl concentration under which DD4 could survive and maintain growth and cometabolic activity toward dioxane (Azoarcus sp. DD4 [6]; w/v): 0.0-3.0%

Question: With ClC=C(Cl)Cl [TCE, trichloroethene] as the compound, how does the “effect of presence on degradation of dioxane or consumption of propane for growth” value (Mycobacterium sp. DT1; DT1, BSM, propane as primary substrate) read?
Answer: no significant inhibition
